Broadly, the inhibition is the percentage by which the read-out fell short of the control.

Consider 45 compounds from patent publication EP1724268A1, “COMPOUND HAVING TGF-BETA INHIBITORY ACTIVITY AND PHARMACEUTICAL COMPOSITION CONTAINING SAME” (KIRIN BEER KABUSHIKI KAISHA, priority 2004, dated 2005).

For the experiment, the system named is TGFβ signal. The experiment in a line: TGFβ signal inhibitory activity, (SBE)4-Luc reporter in A549 cells (Test Examples 1A and 1B). The note with it: Homo sapiens, A549, read-out: TGFβ inhibition rate, %. In kind it is cell-based, human. Summed up: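 Compounds at 3 µM and 10 µM (some 1 µM) were added with 2 ng/ml TGFβ-1 to A549 cells stably expressing an SBE-driven luciferase, then cultured 4 hr. Chemiluminescent luciferase signal gave % inhibition versus TGFβ-alone and no-TGFβ controls.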

[1] abbreviates: test compound 3 µM, TGFβ-1 2 ng/ml, 4 hr, Table 1A.
[2] abbreviates: 3 µM, compounds of Reference Examples (Test Example 1B).
[3] abbreviates: 10 µM, compounds of Reference Examples (Test Example 1B).
[4] abbreviates: test compound 3 µM, Reference Examples, Table 1B.
Setting [5] is: test compound 10 µM, Reference Examples, Table 1B.
Setting [6] is: test compound 10 µM, TGFβ-1 2 ng/ml, 4 hr, Table 1A.

Where two headings read alike, the source gives them in different places.

Take `Cc1ccc(Oc2ccnc3ccc(OCCCN(C)CCO)cc23)c(-c2ncccn2)n1` [Compound 211, 2-(Methyl-{3-[4-(6-methyl-2-pyrimidin-2-yl-pyridin-3-yloxy)-quinolin-6-yloxy]-propyl}-amino)-ethanol]: the inhibition at 3 µM under setting [1] is 54%.
Regarding `COc1cc2nccc(Oc3c(C)cc4ncccc4c3Cl)c2cc1OC` [r302], under setting [2], the inhibition at 3 µM came to 30%. Besides, under setting [3], the inhibition at 10 µM was 90%.
As for `COc1cc2nccc(Oc3cc4ccccc4nc3C)c2cc1OCCn1ccnc1` [Compound r416, 6-(2-Imidazol-1-yl-ethoxy)-7-methoxy-4-(2-methyl-quinolin-3-yloxy)-quinoline], the inhibition at 3 µM under setting [2] came out at 92%. The inhibition at 10 µM under setting [3] was 100%.
Turning to `COc1cc2nccc(Oc3ccc(C)cc3Nc3ccccc3)c2cc1OC` [Compound r14, N-[2-[(6,7-Dimethoxy-4-quinolyl)oxy]-5-methylphenyl]-N-phenylamine], the inhibition at 3 µM under setting [4] is 15%. Further, the inhibition at 10 µM under setting [5] amounted to 64%.
On to `COc1cc2nccc(Oc3cc4cccnc4nc3C(C)(C)C)c2cc1OC` [r426], for which the inhibition at 3 µM under setting [2] amounted to 100%.
For `COc1cc2nccc(Oc3ccc(C)cc3-c3ccno3)c2cc1OC` [r12], the inhibition at 3 µM under setting [4] turned out to be 21%. Further, the inhibition at 10 µM under setting [5] is 89%.
Consider `COc1cc2c(Oc3cc(C)c(C)nc3-c3ccccn3)ccnc2cc1OCCCCO` [Compound r445], for which the inhibition at 3 µM under setting [2] is 99%.
Regarding `CCOC(=O)c1cc(C(C)=O)ccc1Oc1ccnc2cc(OC)c(OC)cc12` [Compound r88], under setting [4], the inhibition at 3 µM worked out at 70%. The inhibition at 10 µM under setting [5] turned out to be 94%.
For `Cc1cc(Oc2ccnc3ccc(-c4cccn4C(=O)OC(C)(C)C)cc23)c(-c2ccccn2)nc1C` [Compound 167, 2-[4-(5,6-Dimethyl-[2,2']bipyridinyl-3-yloxy)-quinolin-6-yl]-pyrrole-1-carboxylate tert-butyl ester], the inhibition at 3 µM under setting [1] came to 35%. In addition, under setting [6], the inhibition at 10 µM was determined as 85%.
The corresponding values for `COc1cc2c(Oc3cc(C)c(C)nc3-c3ccccn3)ccnc2cc1F` [Compound 104, 3-(7-Fluoro-6-methoxy-quinolin-4-yloxy)-5,6-dimethyl-[2,2']bipyridine] are 99% and 100%.
In the case of `COc1cc2nccc(Oc3cc4cccnc4cc3C)c2cc1OC` [r296], the inhibition at 3 µM under setting [2] is 86%. Under setting [3], the inhibition at 10 µM stood at 100%.
Take `COc1cc2nccc(Oc3ccc4cc(Br)ccc4c3)c2cc1OC` [r18]: the inhibition at 3 µM under setting [4] amounted to 15%. The inhibition at 10 µM under setting [5] came to 69%.
`COc1cc2nccc(Oc3ccc4ncccc4c3Cl)c2cc1OC` [r298]: the inhibition at 3 µM under setting [2] worked out at 30%. In addition, the inhibition at 10 µM under setting [3] worked out at 75%.
As for `Cc1cc(Oc2ccnc3cc(-c4cccc(N)c4)ccc23)c(-c2ccccn2)nc1C` [Compound 21, 3-[4-(5,6-Dimethyl-[2,2']bipyridin-3-yloxy)-quinolin-7-yl]-phenylamine], the inhibition at 3 µM under setting [1] worked out at 99%. Besides, the inhibition at 10 µM under setting [6] was determined as 100%.
With `COc1cc2nccc(Oc3ccc(C)cc3C(=O)c3ccc(O)cc3)c2cc1OC` [r188], the inhibition at 3 µM under setting [2] was found to be 80%. Also, the inhibition at 10 µM under setting [3] amounted to 100%.
With `COc1cc2c(Oc3ccc(C)cc3C(=O)c3ccccc3)ccnc2cc1OCCN1CCC(N2CCCC2)CC1` [Compound r127], the inhibition at 3 µM under setting [4] was 99%. Under setting [5], the inhibition at 10 µM came to 100%.
`CCOC(=O)c1cc(F)ccc1Sc1ccnc2cc(OC)c(OC)cc12` [Compound r419]: under setting [2], the inhibition at 3 µM stood at 7%. Also, under setting [3], the inhibition at 10 µM is 67%.
On the same counts, the results for `COc1cc2c(Oc3cc(C)c(C)nc3-c3cccc(C)n3)ccnc2cc1OCC(CO)CO` [Compound r448] are 70% and 97%.
Turning to `COC(=O)c1ccc2c(Oc3cc4cccnc4nc3-c3ccccc3)ccnc2c1` [Compound 113, Methyl 4-(2-Phenyl-[1,8]naphthyridin-3-yloxy)-quinoline-7-carboxarlate], the inhibition at 3 µM under setting [1] was 95%. Further, the inhibition at 10 µM under setting [6] turned out to be 100%.
On to `COc1cc2nccc(Oc3ccc(C)nc3-c3cccc(N)c3)c2cc1OC` [Compound r235], for which the inhibition at 3 µM under setting [2] was determined as 100%. Besides, the inhibition at 10 µM under setting [3] was found to be 100%.
For `CCCCCCCCOc1ccc(C(=O)c2ccccc2)c(Oc2ccnc3cc(OC)c(OC)cc23)c1` [Compound r66], the inhibition at 3 µM under setting [4] stood at 22%. Besides, under setting [5], the inhibition at 10 µM was found to be 86%.
Turning to `COc1ccc(Oc2ccnc3cc(OC)c(OC)cc23)c(C=O)c1` [Compound r26], the inhibition at 3 µM under setting [4] turned out to be 20%. Besides, the inhibition at 10 µM under setting [5] worked out at 73%.
On to `Cc1cc(Oc2ncnc3sccc23)c(-c2ccccn2)nc1C` [Compound 32, 5,6-Dimethyl-3-(thieno[2,3-d]pyrimidin-4-yloxy)-[2,2']bipyridine], for which, under setting [1], the inhibition at 3 µM turned out to be 64%. The inhibition at 10 µM under setting [6] was determined as 94%.
Take `COc1ccc(Oc2ccnc3cc(OC)c(OC)cc23)c(C(=O)c2nccs2)c1` [r192]: under setting [2], the inhibition at 3 µM was determined as 79%. Further, the inhibition at 10 µM under setting [3] turned out to be 99%.
On to `CCC(=O)c1cc(C)ccc1Oc1ccnc2cc(OC)c(OC)cc12` [Compound r48], for which the inhibition at 3 µM under setting [4] was determined as 98%. Further, the inhibition at 10 µM under setting [5] is 100%.
For `Cc1ccc(Oc2ccnc3ccc(OCC(C)(C)C)cc23)c(-c2ncccn2)n1` [Compound 214, 6-(2,2-Dimethyl-propoxy)-4-(6-methyl-2-pyrimidin-2-yl-pyridin-3-yloxy)-quinoline], under setting [1], the inhibition at 3 µM came to 90%.
Take `COc1cc2nccc(Oc3cc(C)c(C)nc3-c3ccccn3)c2cc1-c1cccnc1` [Compound 155, 3-(7-Methoxy-6-pyridin-3-yl-quinotin-4-yloxy)-5,6-dimethyl-[2,2']bipyridine]: the inhibition at 3 µM under setting [1] was 99%. For the same compound, the inhibition at 10 µM under setting [6] was determined as 100%.
With `CCOC(=O)c1cc(Br)ccc1Oc1ccnc2cc(OC)c(OC)cc12` [Compound r85], the inhibition at 3 µM under setting [4] was determined as 87%. Besides, under setting [5], the inhibition at 10 µM stood at 100%.
Take `COc1cc2nccc(Oc3ccc(C)nc3C#N)c2cc1OC` [Compound r213, 3-(6,7-Dimethoxy-quinolin-4-yloxy)-6-methyl-pyridin-2-carbonitrile]: the inhibition at 3 µM under setting [2] came out at 28%. Besides, the inhibition at 10 µM under setting [3] amounted to 65%.
On the same counts, the results for `COc1cc2nccc(Oc3ccc(C)nc3-c3cccc(NC(C)=O)c3)c2cc1OC` [Compound r236] are 90% and 100%.
Regarding `Cc1cc(Oc2ccnc3c(F)cc(F)cc23)c(-c2ccccn2)nc1C` [Compound 111, 3-(6,8-Difluoro-quinolin-4-yloxy)-5,6-dimethyl-[2,2']bipyridine], the inhibition at 3 µM under setting [1] is 43%. For the same compound, the inhibition at 10 µM under setting [6] came to 84%.
As for `COc1cc2c(Oc3ccc(C)cc3C(=O)c3ccccc3)ccnc2cc1OCCn1ccnc1` [Compound r131], the inhibition at 3 µM under setting [4] turned out to be 96%. For the same compound, the inhibition at 10 µM under setting [5] worked out at 100%.
The corresponding values for `CCN(CC)CCCOc1cc2nccc(Oc3ccc(C)cc3C(=O)c3ccccc3)c2cc1OC` [Compound r134] are 100% and 100%.
Turning to `COc1cc2c(Oc3cc(C)c(C)nc3-c3cccnc3)ccnc2cc1OCc1ccccc1` [Compound r344], under setting [2], the inhibition at 3 µM amounted to 92%.
Same read-out and setting: the result for `COc1cc2c(Oc3cc(C)c(C)nc3-c3ccccn3)ccnc2cc1OCc1ccccc1` [Compound r337] reads 98%.
On to `COc1cc2c(Oc3cc(C)c(C)nc3-c3ccc(C)cn3)ccnc2cc1OCc1ccccc1` [Compound r452], for which the inhibition at 3 µM under setting [2] stood at 67%. Also, under setting [3], the inhibition at 10 µM was determined as 99%.
The corresponding values for `COc1cc2nccc(Oc3cc(C)c(C)cc3C(C)=NO)c2cc1OC` [Compound r195] are 99% and 100%.
The corresponding values for `CCCOC(=O)c1cc2ccccc2cc1Oc1ccnc2cc(OCCCn3ccnc3)c(OC)cc12` [Compound r327] are 89% and 100%.
Turning to `c1ccc(-c2nc3ncccc3cc2Oc2ncnc3sccc23)cc1` [Compound 76, 2-Phenyl-3-(thieno[2,3-d]pyrimidin-4-yloxy)-[1,8]naphthyridine], under setting [1], the inhibition at 3 µM amounted to 44%. Also, under setting [6], the inhibition at 10 µM was found to be 83%.
With `COc1cc2c(Oc3cc(C)c(C)nc3-c3cccnc3)ccnc2cc1OCC(CO)CO` [Compound r350], under setting [2], the inhibition at 3 µM amounted to 96%.
Consider `COc1cc2nccc(Oc3cc4cccnc4nc3C)c2cc1F` [Compound 160, 3-(6-Fluoro-7-methoxy-quinolin-4-yloxy)-2-methyl-[1,8]naphthyridine], for which, under setting [1], the inhibition at 3 µM turned out to be 56%. Moreover, under setting [6], the inhibition at 10 µM is 87%.
Consider `COc1cc2nccc(Oc3ccc(C)cc3Cl)c2cc1OC` [Compound r3], for which, under setting [4], the inhibition at 3 µM is 0%. Also, the inhibition at 10 µM under setting [5] worked out at 75%.
As to `CCCOC(=O)c1cc2ccccc2cc1Oc1ccnc2cc(OCCCN3CCOCC3)c(OC)cc12` [Compound r326], the inhibition at 3 µM under setting [2] was 83%. The inhibition at 10 µM under setting [3] was 100%.
Take `c1ccc(-c2nc3ncccc3cc2Oc2ccnc3cccnc23)cc1` [Compound 73, 4-(2-Phenyl-[1,8]naphthyridin-3-yloxy)-[1,5]naphthyridine]: the inhibition at 3 µM under setting [1] worked out at 26%. Also, under setting [6], the inhibition at 10 µM stood at 80%.
In the case of `COc1cc2c(Oc3cc(C)c(C)nc3-c3cccnc3)ccnc2cc1OCCO` [Compound r346], under setting [2], the inhibition at 3 µM was 99%.
